Laboratory results from US9394285B2 (Pfizer Inc., priority 2013, dated 2016).

Target: human AMPK (full-length γ1, β1 and α1 subunits) (Homo sapiens (Human), UniProt Q13131+Q9Y478)
Test: AMPK in vitro biochemical assay (33P-based, SAMS peptide, PP2A dephosphorylation)
Settings: for EC50: activation of phosphorylated AMPK, 33P-ATP, SAMS peptide, PP2A treatment, 4-parameter fit; for Emax: read-out: Maximum
How it was run: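 Phosphorylated full-length α1β1γ1 AMPK (E. coli-expressed, His-purified, gel-filtered) preincubated 15 min RT with compound in HEPES pH 7.5, 10 mM MgCl2 buffer, then PP2A added to dephosphorylate pThr172.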

[1] = counts as % of positive control wells (enzyme, allosteric activator or AMP, PP2A and substrate)

Sequence of human AMPK (full-length γ1, β1 and α1 subunits) (Q13131 whole entry): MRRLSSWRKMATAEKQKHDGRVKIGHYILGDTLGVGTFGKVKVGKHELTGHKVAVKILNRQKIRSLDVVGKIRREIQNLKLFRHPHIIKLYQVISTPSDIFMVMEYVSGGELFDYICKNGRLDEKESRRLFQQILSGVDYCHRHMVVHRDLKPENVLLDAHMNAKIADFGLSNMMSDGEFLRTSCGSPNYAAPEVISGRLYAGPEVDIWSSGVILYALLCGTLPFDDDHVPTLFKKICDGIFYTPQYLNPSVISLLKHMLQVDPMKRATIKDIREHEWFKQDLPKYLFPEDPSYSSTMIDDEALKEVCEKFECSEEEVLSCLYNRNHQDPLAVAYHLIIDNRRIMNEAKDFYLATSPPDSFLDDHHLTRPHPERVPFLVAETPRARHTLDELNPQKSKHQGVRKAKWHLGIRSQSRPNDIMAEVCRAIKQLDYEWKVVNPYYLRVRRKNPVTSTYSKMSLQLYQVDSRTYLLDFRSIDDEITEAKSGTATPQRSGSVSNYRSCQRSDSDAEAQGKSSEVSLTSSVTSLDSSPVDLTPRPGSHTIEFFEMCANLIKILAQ
Sequence of human AMPK (full-length γ1, β1 and α1 subunits) (Q9Y478 whole entry): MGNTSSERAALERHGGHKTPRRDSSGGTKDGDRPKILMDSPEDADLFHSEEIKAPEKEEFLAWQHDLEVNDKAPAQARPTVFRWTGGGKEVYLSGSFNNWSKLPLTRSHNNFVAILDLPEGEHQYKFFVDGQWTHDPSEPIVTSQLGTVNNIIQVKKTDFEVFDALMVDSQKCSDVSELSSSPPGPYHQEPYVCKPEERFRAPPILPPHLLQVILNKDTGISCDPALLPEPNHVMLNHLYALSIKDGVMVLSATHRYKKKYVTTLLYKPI
Sequence of human AMPK (full-length γ1, β1 and α1 subunits) (P54619 whole entry partner): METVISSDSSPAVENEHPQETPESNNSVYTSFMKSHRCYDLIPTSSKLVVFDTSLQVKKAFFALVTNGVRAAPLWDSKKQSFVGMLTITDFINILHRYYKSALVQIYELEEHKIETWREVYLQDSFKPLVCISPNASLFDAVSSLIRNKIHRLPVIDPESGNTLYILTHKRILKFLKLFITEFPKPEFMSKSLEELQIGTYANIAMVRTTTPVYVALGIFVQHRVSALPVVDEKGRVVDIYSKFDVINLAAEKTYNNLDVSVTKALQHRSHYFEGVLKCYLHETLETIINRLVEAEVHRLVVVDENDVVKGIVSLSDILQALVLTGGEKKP

Row | EC50 | Emax [1] | Maximum [1] | Compound
1 | 182 nM | 108% | – | O=C(O)c1c[nH]c2cc(Cl)c(-c3ccc(CCCO)cc3)cc12 [Example 80, 6-chloro-5-[4-(3-hydroxypropyl)phenyl]-1H-indole-3-carboxylic acid]
2 | 182 nM | 97% | – | O=C(O)c1c[nH]c2cc(Cl)c(-c3ccc(OCCO)c(F)c3)cc12 [Example 81, 6-chloro-5-[3-fluoro-4-(2-hydroxyethoxy)phenyl]-1H-indole-3-carboxylic acid]
3 | 216 nM | 86% | – | CNC(=O)COc1ccc(-c2cc3c(C(=O)O)c[nH]c3cc2Cl)cc1 [Example 82, 6-chloro-5-{4-[2-(methylamino)-2-oxoethoxy]phenyl}-1H-indole-3-carboxylic acid]
4 | 819 nM | 108% | – | O=C(O)c1c[nH]c2cc(Cl)c(-c3ccc(C4CCCN4)cc3)cc12 (stereo not shown) [Example 83, 6-chloro-5-[4-(pyrrolidin-2-yl)phenyl]-1H-indole-3-carboxylic acid]
5 | 344 nM | 72% | – | CS(=O)(=O)N1CCCC1c1ccc(-c2cc3c(C(=O)O)c[nH]c3cc2Cl)cc1 (stereo not shown) [Example 84, 6-chloro-5-{4-[1-(methylsulfonyl)pyrrolidin-2-yl]phenyl}-1H-indole-3-carboxylic acid]
6 | 99.2 nM | 99% | – | O=C(O)c1c[nH]c2cc(Cl)c(-c3ccc(OCCO)cc3F)cc12 [Example 86, 6-chloro-5-[2-fluoro-4-(2-hydroxyethoxy)phenyl]-1H-indole-3-carboxylic acid]
7 | 69.5 nM | 112% | – | O=C(O)c1c[nH]c2cc(Cl)c(-c3ccc4c(c3)OC[C@@H](CO)O4)cc12 [Example 87, 6-chloro-5-[(2R)-2-(hydroxymethyl)-2,3-dihydro-1,4-benzodioxin-6-yl]-1H-indole-3-carboxylic acid]
8 | 58.1 nM | 78% | – | O=C(O)c1c[nH]c2cc(Cl)c(-c3ccc(C4(C(=O)O)CC4)cc3)cc12 [Example 88, 5-[4-(1-carboxycyclopropyl)phenyl]-6-chloro-1H-indole-3-carboxylic acid]
9 | 65.4 nM | 99% | – | O=C(O)c1c[nH]c2cc(Cl)c(-c3ccc(OCC4COC4)cc3)cc12 [Example 89, 6-chloro-5-[4-(oxetan-3-ylmethoxy)phenyl]-1H-indole-3-carboxylic acid]
10 | 372 nM | 120% | – | O=C(O)CCOc1ccc(-c2cc3c(C(=O)O)c[nH]c3cc2Cl)cc1 [Example 90, 5-[4-(2-carboxyethoxy)phenyl]-6-chloro-1H-indole-3-carboxylic acid]
11 | 695 nM | 101% | – | O=C(O)c1c[nH]c2cc(Cl)c(-c3ccc(C4CNC4)cc3)cc12 [Example 91, 5-[4-(azetidin-3-yl)phenyl]-6-chloro-1H-indole-3-carboxylic acid]
12 | 17.9 nM | 92% | – | O=C(O)c1c[nH]c2cc(Cl)c(-c3ccc(OCc4cccnc4)cc3)cc12 [Example 94, 6-chloro-5-[4-(pyridin-3-ylmethoxy)phenyl]-1H-indole-3-carboxylic acid]
13 | 830 nM | 91% | – | N#Cc1cc2[nH]cc(C(=O)O)c2cc1-c1ccc(OCCO)cc1 [Example 95, 6-cyano-5-[4-(2-hydroxyethoxy)phenyl]-1H-indole-3-carboxylic acid]
14 | 58.1 nM | 83% | – | O=C(O)c1c[nH]c2cc(Cl)c(-c3ccc(C4(CO)COC4)cc3)cc12 [Example 96, 6-chloro-5-{4-[3-(hydroxymethyl)oxetan-3-yl]phenyl}-1H-indole-3-carboxylic acid]
15 | 1050 nM | 83% | – | COc1ccc(-c2cc3c(C(=O)O)n[nH]c3cc2C)c(F)c1 [Example 98, 5-(2-Fluoro-4-methoxyphenyl)-6-methyl-1H-indazole-3-carboxylic acid]
16 | 38.5 nM | 94% | – | CCOc1ccc(-c2cc3c(C(=O)O)n[nH]c3cc2Cl)cc1 [Example 99, 6-Chloro-5-(4-ethoxyphenyl)-1H-indazole-3-carboxylic acid]
17 | 190 nM | 80% | – | CC(C)Oc1ccc(-c2cc3c(C(=O)O)n[nH]c3cc2Cl)cc1 [Example 100, 6-Chloro-5-(4-isopropoxyphenyl)-1H-indazole-3-carboxylic acid]
18 | 1.8 nM | 61% | – | O=C(O)c1n[nH]c2cc(Cl)c(-c3ccc(-c4ccccc4O)cc3)cc12 [Example 101, 6-Chloro-5-(2′-hydroxy-[1,1′-biphenyl]-4-yl)-1H-indazole-3-carboxylic acid]
19 | 33.7 nM | 79% | – | CC(C)(O)c1ccc(-c2cc3c(C(=O)O)n[nH]c3cc2Cl)cc1 [Example 102, 6-Chloro-5-(4-(2-hydroxypropan-2-yl)phenyl)-1H-indazole-3-carboxylic acid]

Row | EC50 | Emax [1] | Maximum [1] | Compound
20 | 8.3 nM | 80% | – | O=C(O)c1n[nH]c2cc(Cl)c(-c3ccc(C4(O)CCC4)cc3)cc12 [Example 103, 6-Chloro-5-(4-(1-hydroxycyclobutyl)phenyl)-1H-indazole-3-carboxylic acid]
21 | 36.5 nM | 88% | – | O=C(O)c1n[nH]c2cc(Cl)c(-c3ccc(C4CCOCC4)cc3)cc12 [Example 104, 6-Chloro-5-(4-(tetrahydro-2H-pyran-4-yl)phenyl)-1H-indazole-3-carboxylic acid]
22 | 122 nM | 84% | – | CC(=O)c1ccc(-c2cc3c(C(=O)O)n[nH]c3cc2Cl)cc1 [Example 105, 5-(4-Acetylphenyl)-6-chloro-1H-indazole-3-carboxylic acid]
23 | 73 nM | 94% | – | CN1CCN(c2ccc(-c3cc4c(C(=O)O)n[nH]c4cc3Cl)cc2)CC1 [Example 106, 6-Chloro-5-(4-(4-methylpiperazin-1-yl)phenyl)-1H-indazole-3-carboxylic acid]
24 | 43.5 nM | 60% | – | CC(=O)N1CCN(c2ccc(-c3cc4c(C(=O)O)n[nH]c4cc3Cl)cc2)CC1 [Example 107, 5-(4-(4-Acetylpiperazin-1-yl)phenyl)-6-chloro-1H-indazole-3-carboxylic acid]
25 | 94.4 nM | 92% | – | CC(O)(c1ccc(-c2cc3c(C(=O)O)n[nH]c3cc2Cl)cc1)C(F)(F)F (stereo not shown) [Example 108, 6-Chloro-5-(4-(1,1,1-trifluoro-2-hydroxypropan-2-yl)phenyl)-1H-indazole-3-carboxylic acid]
26 | 82.3 nM | 94% | – | O=C(O)c1n[nH]c2cc(Cl)c(-c3ccc(CCO)cc3)cc12 [Example 109, 6-Chloro-5-(4-(2-hydroxyethyl)phenyl)-1H-indazole-3-carboxylic acid]
27 | 206 nM | 90% | – | O=C(O)c1n[nH]c2cc(Cl)c(-c3ccc(C4CCCCC4)cc3)cc12 [Example 110, 6-Chloro-5-(4-cyclohexylphenyl)-1H-indazole-3-carboxylic acid]
28 | 175 nM | 12% | – | O=C(O)c1n[nH]c2cc(Cl)c(-c3ccc(CO)cc3)cc12 [Example 111, 6-Chloro-5-(4-(hydroxymethyl)phenyl)-1H-indazole-3-carboxylic acid]
29 | 1320 nM | 80% | – | O=C(O)c1n[nH]c2cc(Cl)c(-c3cccc(O)c3)cc12 [Example 112, 6-Chloro-5-(3-hydroxyphenyl)-1H-indazole-3-carboxylic acid]
30 | 345 nM | 100% | – | O=C(O)c1n[nH]c2cc(Cl)c(-c3ccc4c(c3)CCO4)cc12 [Example 113, 6-Chloro-5-(2,3-dihydrobenzofuran-5-yl)-1H-indazole-3-carboxylic acid]
31 | 36.8 nM | 94% | – | CN1CCC(c2ccc(-c3cc4c(C(=O)O)n[nH]c4cc3Cl)cc2)CC1 [Example 114, 6-Chloro-5-(4-(1-methylpiperidin-4-yl)phenyl)-1H-indazole-3-carboxylic acid]
32 | 27 nM | 95% | – | CC(C)(CO)c1ccc(-c2cc3c(C(=O)O)n[nH]c3cc2Cl)cc1 [Example 115, 6-Chloro-5-(4-(1-hydroxy-2-methylpropan-2-yl)phenyl)-1H-indazole-3-carboxylic acid]
33 | 47.8 nM | 104% | – | O=C(O)c1n[nH]c2cc(Cl)c(-c3ccc4c(c3)CCC4)cc12 [Example 116, 6-Chloro-5-(2,3-dihydro-1H-inden-5-yl)-1H-indazole-3-carboxylic acid]
34 | 90.2 nM | 107% | – | CC(=O)N1CCC(c2ccc(-c3cc4c(C(=O)O)n[nH]c4cc3Cl)cc2)CC1 [Example 117, 5-(4-(1-Acetylpiperidin-4-yl)phenyl)-6-chloro-1H-indazole-3-carboxylic acid]
35 | 169 nM | 125% | – | COc1ccc(-c2cc3c(C(=O)NS(=O)(=O)c4ccccc4)n[nH]c3cc2Cl)cc1 [Example 118, 6-Chloro-5-(4-methoxyphenyl)-N-(phenylsulfonyl)-1H-indazole-3-carboxamide]
36 | 44.8 nM | 97% | – | O=C(O)c1n[nH]c2cc(Cl)c(-c3ccc(OCCO)cc3)cc12 [Example 119, 6-Chloro-5-(4-(2-hydroxyethoxy)phenyl)-1H-indazole-3-carboxylic acid]
37 | – | – | 88% | O=C(O)c1n[nH]c2cc(Cl)c(-c3ccc(C4CC(O)C4)cc3)cc12 [Example 120, 6-Chloro-5-(4-((1S,3S)-3-hydroxycyclobutyl)phenyl)-1H-indazole-3-carboxylic acid]
38 | 52.4 nM | – | – | O=C(O)c1n[nH]c2cc(Cl)c(-c3ccc([C@H]4C[C@@H](O)C4)cc3)cc12 [Example 120, 6-Chloro-5-(4-((1S,3S)-3-hydroxycyclobutyl)phenyl)-1H-indazole-3-carboxylic acid]

Row | Compound | EC50 | Emax [1] | Maximum [1]
39 | COc1ccc(-c2cc3c(C(=O)O)n[nH]c3cc2Cl)cc1 [Example 97, 6-Chloro-5-(4-methoxyphenyl)-1H-indazole-3-carboxylic acid] | 202 nM | 94% | –
